# Target: T1, GPX4 (Homo sapiens, UniProt P36969)
# T1 sequence (P36969 1-170 isoform P36969-2): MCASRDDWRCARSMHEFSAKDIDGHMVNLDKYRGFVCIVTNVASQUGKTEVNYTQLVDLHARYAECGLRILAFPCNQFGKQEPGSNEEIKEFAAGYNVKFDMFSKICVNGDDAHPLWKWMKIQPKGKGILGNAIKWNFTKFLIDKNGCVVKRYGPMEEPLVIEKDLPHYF
# Test: GPX4 activity assay in cell lysates (NADPH-coupled)
# Format: biochemical
# Design: endogenous in cells; host or cells: A-673 cell lysate
# Settings: not given
# Procedure: Determination of GPX4 activity in cell lysates was performed as previously described by Roveri et al. 1994 with minor modifications. Briefly, the assay measures the consumption of NADPH, which has a characteristic absorbance at 340 nm, over time as a proxy for GPX4 activity. The rationale for this is that as GPX4 reduces phospholipid hydroperoxides, it oxidizes glutathione, which is then regenerated by glutathione reductase at the expense of NADPH. NADPH is added to the assay in excess such that the reduction of oxidized glutathione is not the rate-limiting reaction in the assay. Thus, the resulting reduction in NADPH absorbance over time reflects GPX4 activity.
# The GPX4-specific substrate phosphatidylcholine hydroperoxide (PCOOH) was prepared by enzymatic hydroperoxidation. Specifically, 0.3 mM phosphatidylcholines (Sigma-Aldrich) were incubated with 0.7 mg soybean lipoxidase type IV (Sigma-Aldrich) in 22 mL of 0.2 M Tris-HCl pH 8.8 with 3 mM sodium deoxycholate at room temperature under continuous stirring for 30 minutes. A Sep-Pak C18 cartridge (Waters-Millipore) was pre-washed with methanol and equilibrated with water, then the substrate mixture was loaded. The column was washed with 10 volumes of water and PCOOH was eluted with 2 mL of methanol.
# To prepare the cell lysate containing native GPX4, A-673 cells were cultured with 20 nM sodium selenite to confluency over two days then harvested and washed with cold PBS. Cells were then resuspended at 10 million cells per 1 mL LCW lysis buffer (0.5% peroxide-free Triton X-100, 0.5% sodium deoxycholate salt, 150 mM NaCl, 20 mM Tris-HCl pH 7.5, 10 mM EDTA, 30 mM sodium pyrophosphate, and complete protease inhibitor cocktail), vortexed for 30 seconds, and incubated on ice for 15 minutes. After lysis, the lysates were centrifuged at 14,000×g and 4° C. for 15 minutes. The supernatants were transferred to new pre-chilled tube and the debris pellet was discarded. The protein concentration in the lysate was determined for normalization using the BCA Protein Assay Kit (Pierce).
# To measure GPX4 activity, 50 μL of cell lysate was combined with 200 μL activity assay buffer (0.1% Triton X-100, 100 mM Tris-HCl pH 8.0, 10 mM sodium azide, 5 mM EDTA, 0.6 IU/mL glutathione reductase, 0.5 mM NADPH and 3 mM GSH) and compounds of interest in a clear 96-well plate and incubated at 37° C. for 45 minutes. Compounds were dissolved in DMSO. All conditions were tested in triplicate. PCOOH substrate was added to the mixture to initiate GPX4 activity just before reading the plate. The absorbance of NADPH at 340 nm was monitored kinetically over time for 25 minutes. Buffer-only controls and controls without substrate containing only the methanol vehicle were performed to assess background and baseline signal. GPX4 activity was calculated as previously reported by Stolwijk et al. 2020 and results were analyzed in GraphPad Prism 9.
row,SMILES,"GPX4 inhibitory activity, result in words"
1,C=CC(=O)OCC(C)(C)NC(=O)c1nn(C)c2cc(Br)ccc12 [QW-417],inactive during GPX4 inhibition
2,Cn1nc(C(=O)NC(C)(C)COC(=O)CCl)c2ccc(-c3ccc(C#N)cc3)cc21 [QW-445],inactive during GPX4 inhibition
3,COc1cccc(OC)c1-c1ccc2c(C(=O)NC(C)(C)COC(=O)CCl)nn(C)c2c1 [QW-487],completely loss of the inhibitory effect
4,Cn1nc(C(=O)NC(C)(C)COC(=O)CCl)c2ccc(-c3ccc(C(F)(F)F)cc3)cc21 [QW-502],inactive during GPX4 inhibition
5,COc1cc(-c2ccc3c(C(=O)NC(C)(C)COC(=O)CCl)nn(C)c3c2)ccc1Cl [QW-556],reduced the inhibitory activity

# Same assay, conditions: 5 μM
row,SMILES,GPX4% inhibition at 5 μM
1,Cn1nc(C(=O)NC(C)(C)COC(=O)CCl)c2ccc(-c3ccc(F)nc3)cc21 [QW-444],34.1 ± 0.3%
2,Cn1nc(C(=O)NC(C)(C)COC(=O)CCl)c2ccc(-c3ccc(C#N)cc3)cc21 [QW-445],21.2 ± 5.7%
3,Cn1nc(C(=O)NC(C)(C)COC(=O)CCl)c2ccc(-c3ccoc3)cc21 [QW-451],37.7 ± 4.1%
4,Cn1nc(C(=O)NC(C)(C)COC(=O)CCl)c2ccc(-c3cccc([N+](=O)[O-])c3)cc21 [QW-452],55.0 ± 5.8%
5,Cn1nc(C(=O)NC(C)(C)COC(=O)CCl)c2ccc(-c3cc4ccccc4[nH]3)cc21 [QW-453],67.0 ± 4.7%
6,Cn1nc(C(=O)NC(C)(C)COC(=O)CCl)c2ccc(-c3ccc4c(c3)OCCO4)cc21 [QW-457],54.4 ± 7.2%
7,Cn1nc(C(=O)NC(C)(C)COC(=O)CCl)c2ccc(-c3cccc4[nH]ccc34)cc21 [QW-467],−10.3 ± 4.3%
8,Cn1nc(C(=O)NC(C)(C)COC(=O)CCl)c2ccc(-c3ccc(OC(F)(F)F)cc3)cc21 [QW-469],64.3 ± 0.7%
9,COc1cc(-c2ccc3c(C(=O)NC(C)(C)COC(=O)CCl)nn(C)c3c2)cc(OC)c1OC [QW-479],59.6 ± 6.8%
10,COc1ccccc1-c1ccc2c(C(=O)NC(C)(C)COC(=O)CCl)nn(C)c2c1 [QW-483],35.8 ± 7.4%
11,COc1cccc(OC)c1-c1ccc2c(C(=O)NC(C)(C)COC(=O)CCl)nn(C)c2c1 [QW-487],3.3 ± 3.0%
12,Cn1nc(C(=O)NC(C)(C)COC(=O)CCl)c2ccc(-c3ccccc3Cl)cc21 [QW-492],45.7 ± 4.9%
13,Cn1nc(C(=O)NC(C)(C)COC(=O)CCl)c2ccc(-c3cccc(F)c3)cc21 [QW-493],77.1 ± 10.4%
14,Cn1nc(C(=O)NC(C)(C)COC(=O)CCl)c2ccc(-c3ccc(Cl)cc3)cc21 [QW-494],76.8 ± 2.3%
15,CC(C)Oc1ccc(Cl)cc1-c1ccc2c(C(=O)NC(C)(C)COC(=O)CCl)nn(C)c2c1 [QW-495],22.9 ± 7.5%
16,Cn1nc(C(=O)NC(C)(C)COC(=O)CCl)c2ccc(-c3ccc(F)c(F)c3)cc21 [QW-500],57.5 ± 5.3%

row,SMILES,GPX4% inhibition at 5 μM
1,Cn1nc(C(=O)NC(C)(C)COC(=O)CCl)c2ccc(-c3ccc(C(F)(F)F)cc3)cc21 [QW-502],−10.2 ± 6.5%
2,Cn1nc(C(=O)NC(C)(C)COC(=O)CCl)c2ccc(-c3ccc(OCc4ccccc4)cc3)cc21 [QW-503],65.3 ± 3.2%
3,CC(C)Oc1ccccc1-c1ccc2c(C(=O)NC(C)(C)COC(=O)CCl)nn(C)c2c1 [QW-509],28.3 ± 3.0%
4,Cn1nc(C(=O)NC(C)(C)COC(=O)CCl)c2ccc(-c3cccc(OC(=O)CCl)c3)cc21 [QW-510],67.2 ± 1.9%
5,Cn1nc(C(=O)NC(C)(C)COC(=O)CCl)c2ccc(-c3ccc(COC(=O)CCl)cc3)cc21 [QW-513],50.1 ± 2.4%
6,Cn1nc(C(=O)NC(C)(C)COC(=O)CCl)c2ccc(C3=CCc4ccccc43)cc21 [QW-514],44.8 ± 6.6%
7,Cn1nc(C(=O)NC(C)(C)COC(=O)CCl)c2ccc(-c3coc4ccccc34)cc21 [QW-535],62.2 ± 5.1%
8,CCOc1ncc(-c2ccc3c(C(=O)NC(C)(C)COC(=O)CCl)nn(C)c3c2)cn1 [QW-536],46.6 ± 2.3%
9,Cn1nc(C(=O)NC(C)(C)COC(=O)CCl)c2ccc(-c3ccc(N4CCOCC4)nc3)cc21 [QW-537],46.1 ± 2.7%
10,Cn1nc(C(=O)NC(C)(C)COC(=O)CCl)c2ccc(-c3ccc(CN4CCOCC4)cc3)cc21 [QW-539],49.6 ± 4.5%
11,Cn1nc(C(=O)NC(C)(C)COC(=O)CCl)c2ccc(-c3cnc4ccccc4c3)cc21 [QW-542],75.6 ± 4.5%
12,Cn1nc(C(=O)NC(C)(C)COC(=O)CCl)c2ccc(-c3ccc(N4CCOCC4)cc3)cc21 [QW-547],72.0 ± 0.4%
13,C=Cc1ccc(-c2ccc3c(C(=O)NC(C)(C)COC(=O)CCl)nn(C)c3c2)cc1 [QW-554],41.4 ± 4.5%
14,C#Cc1ccc(-c2ccc3c(C(=O)NC(C)(C)COC(=O)CCl)nn(C)c3c2)cc1 [QW-555],20.2 ± 0.5%
15,COc1cc(-c2ccc3c(C(=O)NC(C)(C)COC(=O)CCl)nn(C)c3c2)ccc1Cl [QW-556],80.2 ± 1.8%
16,CSc1ccc(-c2ccc3c(C(=O)NC(C)(C)COC(=O)CCl)nn(C)c3c2)cc1Cl [QW-558],91.2 ± 2.3%

# Same assay, conditions: 5 μM; generation 2
row,SMILES,GPX4% inhibition at 5 μM
1,Cn1nc(C(=O)NC(C)(C)COC(=O)CCl)c2ccc([N+](=O)[O-])cc21 [QW-380],62.1 ± 2.4%
2,Cn1nc(C(=O)NC(C)(C)CC(O)S(=O)(=O)[O-])c2ccccc21.[Na+] (stereo not drawn) [QW-394],4.5 ± 17.8%
3,COc1cccc2c(C(=O)NC(C)(C)COC(=O)CCl)nn(C)c12 [QW-398],20.3 ± 9.5%
4,CC(C)(COC(=O)CCl)NC(=O)c1nc2cc(Br)ccc2[nH]1 [QW-407],−14.3 ± 5.2%
5,CC=CC(=O)OCC(C)(C)NC(=O)c1nn(C)c2ccccc12 [QW-411],−6.0 ± 3.1%
6,COC(=O)C=CC(=O)OCC(C)(C)NC(=O)c1nn(C)c2ccccc12 [QW-412],−5.7 ± 8.0%
7,CC=CC(=O)OCC(C)(C)NC(=O)c1nn(C)c2cc(Br)ccc12 [QW-414],−9.1 ± 13.4%
8,COC(=O)C=CC(=O)OCC(C)(C)NC(=O)c1nn(C)c2cc(Br)ccc12 [QW-415],−9.4 ± 8.1%
9,Cn1nc(C(=O)NC(C)(C)COC(=O)CBr)c2ccc(Br)cc21 [QW-416],25.3 ± 13.4%
10,C=CC(=O)OCC(C)(C)NC(=O)c1nn(C)c2cc(Br)ccc12 [QW-417],−5.2 ± 10.0%
11,Cn1nc(C(=O)NC(C)(C)COC(=O)C#C[Si](C)(C)C)c2ccc(Br)cc21 [QW-418],−5.6 ± 5.1%
12,C#CC(=O)OCC(C)(C)NC(=O)c1nn(C)c2cc(Br)ccc12 [QW-420],−10.9 ± 8.0%
13,Cn1nc(C(=O)NC(C)(C)COC(=O)CCl)c2cccnc21 [QW-426],−11.3 ± 4.7%
14,Cc1cc(C(=O)OCC(C)(C)NC(=O)c2nn(C)c3cc(Br)ccc23)no1 [QW-429],−2.3 ± 2.3%
15,Cn1nc(C(=O)NCCCCCC=O)c2ccc(Br)cc21 [QW-497],−15.1 ± 8.4%
16,Cn1nc(C(=O)NCCCCCC(O)S(=O)(=O)[O-])c2ccc(Br)cc21.[Na+] (stereo not drawn) [QW-517],−10.7 ± 7.8%
17,Cn1nc(C(=O)NCCCCCCOC(=O)CCl)c2ccc(Br)cc21 [QW-520],−9.8 ± 6.7%
18,Cn1nc(C(=O)NCCCCCOC(=O)CCl)c2ccc(Br)cc21 [QW-521],−19.3 ± 9.9%
19,Cn1nc(C(=O)NCCCCC=O)c2ccc(Br)cc21 [QW-527],−24.5 ± 0.5%
20,Cn1nc(C(=O)NCCCCC(O)S(=O)(=O)[O-])c2ccc(Br)cc21.[Na+] (stereo not drawn) [QW-534],−36.6 ± 4.8%

# Same assay, conditions: 20 μM; generation 2
row,SMILES,GPX4% inhibition at 20 (μM)
1,Cn1nc(C(=O)NC(C)(C)C=O)c2ccccc21 [QW-387],4.1 ± 4.7%
2,Cn1nc(C(=O)NC(C)(C)CC=O)c2ccccc21 [QW-388],1.6 ± 1.9%
3,Cn1nc(C(=O)NC(C)(C)C(O)S(=O)(=O)[O-])c2ccccc21.[Na+] (stereo not drawn) [QW-389],32.2 ± 2.5%
4,CC(C)(COC(=O)CCl)NC(=O)c1n[nH]c2ncccc12 [QW-390],4.0 ± 3.9%
5,CC(C)(COC(=O)CCl)NC(=O)c1ncn2ccccc12 [QW-391],5.3 ± 8.5%

# Same assay, conditions: concentration not given
row,SMILES,GPX4 inhibition rate
1,Cn1nc(C(=O)NC(C)(C)COC(=O)CCl)c2ccc(-c3cccc([N+](=O)[O-])c3)cc21 [QW-452],50%

# Reference: US20250248979A1, “NOVEL GPX4 INHIBITORS AND USES THEREOF” (THE TRUSTEES OF COLUMBIA UNIVERSITY IN THE CITY OF NEW YORK, priority 2022, published 2025)
